Laboratory results taken from patent publication US11672797B2, “Methods of treating keloids” (Hampton University, priority 2019, dated 2023).

Key:
Type in all cases: cell-based, human
[1] = tested on: Keloid fibroblast (KF) cells (CRL1762); assay: Example 1: Hoechst / propidium iodide staining of keloid fibroblasts after 16 h treatment; details: for number of KF cells: 40 μM KC7F2, 25 uM IDF-11774, 25 uM PX-478, 10 mM 2-DG, compared to control untreated cells, FIGS. 4A-B
[2] = tested on: Keloid fibroblast (KF) cells (CRL1762); assay: Example 3: phalloidin / DAPI staining of keloid fibroblasts, 20,000 cells per well; details: 16 hours
Procedure: (§1) Keloid fibroblast (KF) cells (CRL1762) and normal skin fibroblasts (NF, CRL2439) were both purchased from the American Type Culture Collection (ATCC, Manassas, Va.). This assay compared the effects of KC7F2 versus the glycolytic inhibitor 2-DG on the cellular consequences of HIF-1 functional blockade.
(§2) For each human skin fibroblast, 20,000 cells, were plated per well. Each well was treated and incubated for 16 hours with the following: Control, no chemical treatment; 40 μM KC7F2; 10 mM 2-deoxyglucose (2-DG), a glycolysis inhibitor; and both 40 μM KC7F2 and 10 mM 2-DG. Cells were stained with phalloidin for filamentous actin and cells were labelled DAPI (4′,6-diamidino-2-phenylindolepropridium iodide) to indicate dying cells. Images were taken at a magnification of 4 times (4×) and 10 times (10×).

[3] = tested on: Keloid fibroblast (KF) cells (CRL1762); assay: Example 2: phalloidin / DAPI staining of keloid fibroblasts, 10,000 cells per well; details: 16 hours
Procedure: as §1
as §2, with “10,000 cells” for “20,000 cells,”

SMILES	proliferation ([1]; 10 mM 2-DG alone)	proliferation ([2]; 10 mM 2-DG alone)	proliferation ([3]; 10 mM 2-DG alone)	number of KF cells [1]	number of KF cells ([2]; 40 μM KC7F2, FIGS. 7A, 8A)	number of KF cells ([3]; 40 μM KC7F2, FIGS. 5A, 6A)
O=CC[C@@H](O)[C@H](O)[C@H](O)CO [2-DG, 2-deoxyglucose]	insufficient to impede proliferation to an appreciable amount	insufficient to impede proliferation to an appreciable amount	insufficient to impede proliferation to an appreciable amount			
CN1CCN(C(=O)COc2ccc(C34CC5CC(CC(C5)C3)C4)cc2)CC1 [IDF-11774, 2-(4-((3r,5r,7r)-adamantan-1-yl)phenoxy)-1-(4-methylpiperazin-1-yl)ethan-1-one]				worked less well, but showed the same trend		
O=S(=O)(NCCSSCCNS(=O)(=O)c1cc(Cl)ccc1Cl)c1cc(Cl)ccc1Cl [KC7F2]				reduced the number of KF cells consistently and the best	reduced the number of KF cells consistently and the best	reduced the number of KF cells consistently and the best
